Reference: the supplement of paper PMC10307832

What follows are cell lines tested with Cc1ccc(Nc2nccc(N(C)c3ccc4c(C)n(C)nc4c3)n2)cc1S(N)(=O)=O [Pazopanib] + Nc1nc2[nH]cc(CCc3ccc(C(=O)N[C@@H](CCC(=O)O)C(=O)O)cc3)c2c(=O)[nH]1 [Pemetrexed] (partner 0.2 µM) (assay: relative viability (nuclei count vs DMSO), 5 days (fraction); higher = more cells survive). Settings: first compound 0.01 µM.
Summary of the method: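 A single step with final 0.05% Triton X-100, 1% formaldehyde and 1 ug/ml Hoechst fixed the cells and stained nuclei 5 days after treatment. Lung cancer cell lines in 1536-well plates had been treated by pin tool the day after seeding with one drug alone or a fixed anchor-drug dose plus five library-drug doses (not always all listed) in √10 steps, and nuclei were counted on 4× images. Relative viability is the ratio of nuclei in treated wells to nuclei in vehicle wells, taken as the median of duplicate plates.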

Cell Line	relative viability
NCI-H2342	0.599
NCI-H838	0.272
NCI-H1650	0.34
NCI-H2347	0.444
PC-14	0.133
LCLC-103H	0.447
NCI-H596	0.472
NCI-H2126	0.662
NCI-H2085	0.816
HCC-366	0.298
NCI-H1666	0.932
NCI-H647	0.174
LK-2	0.218
NCI-H2087	0.61
NCI-H1395	0.744
H3255	0.549
COR-L23	0.177
COR-L 105	1.07
LOU-NH91	0.367
ChaGo-K-1	0.267
NCI-H358	0.179
NCI-H3122	0.207
HOP-62	0.366
HCC-44	0.697
NCI-H522	0.842
SW 900	0.512
NCI-H650	0.871
NCI-H1563	0.707
NCI-H661	0.863

Same assay, conditions: first compound 0.03162 µM

Cell Line	relative viability
NCI-H2342	0.756
NCI-H838	0.231
NCI-H1650	0.376
NCI-H1993	0.588
NCI-H2347	0.421
PC-14	0.137
LCLC-103H	0.477
NCI-H596	0.494
NCI-H2126	0.703
EMC-BAC-2	0.456
NCI-H2085	1.09
HCC-366	0.141
NCI-H1666	0.834
NCI-H647	0.159
LK-2	0.243
NCI-H2087	0.65

Cell Line	relative viability
NCI-H1395	0.83
H3255	0.585
COR-L23	0.182
COR-L 105	1.24
LOU-NH91	0.356
ChaGo-K-1	0.256
NCI-H358	0.167
NCI-H3122	0.188
HOP-62	0.36
HCC-44	0.637
NCI-H522	0.83
SW 900	0.504
NCI-H650	0.922
NCI-H1792	0.943
NCI-H1563	0.805
NCI-H661	0.938

Same assay, conditions: first compound 0.1 µM

Cell Line	relative viability
NCI-H2342	0.842
NCI-H838	0.265
NCI-H1650	0.364
NCI-H1993	0.639
NCI-H2347	0.429
PC-14	0.124
LCLC-103H	0.399
NCI-H596	0.478
NCI-H2126	0.68
EMC-BAC-2	0.384
NCI-H2085	0.804
HCC-366	0.16
NCI-H1666	0.92
NCI-H647	0.164
LK-2	0.256
NCI-H2087	0.637

Cell Line	relative viability
NCI-H1648	0.662
NCI-H1395	0.886
H3255	0.581
COR-L23	0.207
COR-L 105	1.19
LOU-NH91	0.417
ChaGo-K-1	0.268
NCI-H358	0.168
NCI-H3122	0.188
HOP-62	0.339
HCC-44	0.605
NCI-H522	0.956
NCI-H650	0.863
NCI-H1792	0.742
NCI-H1563	0.691
NCI-H661	0.969

Same assay, conditions: first compound 0.3162 µM

Cell Line	relative viability
NCI-H2342	0.75
NCI-H838	0.252
NCI-H1650	0.403
NCI-H1993	0.549
NCI-H2347	0.426
PC-14	0.133
LCLC-103H	0.494
NCI-H596	0.522
NCI-H2126	0.693
EMC-BAC-2	0.434
NCI-H2085	0.949
HCC-366	0.159
NCI-H1666	0.72
NCI-H647	0.153
LK-2	0.346
NCI-H2087	0.59
NCI-H1648	0.77

Cell Line	relative viability
NCI-H1395	0.938
H3255	0.569
COR-L23	0.204
COR-L 105	1.21
LOU-NH91	0.416
ChaGo-K-1	0.257
NCI-H358	0.165
NCI-H3122	0.191
HOP-62	0.3
HCC-44	0.62
NCI-H522	1.09
SW 900	0.494
NCI-H650	0.884
NCI-H1792	0.781
NCI-H1563	0.876
NCI-H661	0.955

Same assay, conditions: first compound 1 µM

Cell Line	relative viability
NCI-H2342	0.655
NCI-H838	0.227
NCI-H1650	0.369
NCI-H1993	0.554
NCI-H2347	0.386
PC-14	0.126
LCLC-103H	0.491
NCI-H596	0.528
NCI-H2126	0.721
EMC-BAC-2	0.425
NCI-H2085	1.03
HCC-366	0.131
NCI-H1666	0.847
NCI-H647	0.177
LK-2	0.201
NCI-H2087	0.657
NCI-H1648	0.742
NCI-H1395	0.932
H3255	0.583
COR-L23	0.203
COR-L 105	1.21
LOU-NH91	0.352
ChaGo-K-1	0.252
NCI-H358	0.161
NCI-H3122	0.212
HOP-62	0.224
HCC-44	0.616
NCI-H522	1.02
